{"source": "paper PMC10534422", "about": "“Divergence in Glyphosate Susceptibility between Steinchisma laxum Populations Involves a Pro106Ser Mutation” (Plants, 2023)", "key": {"[1]": {"test_system": "T1, EPSPS (5-enolpyruvylshikimate-3-phosphate synthase)", "T1 construct": "native enzyme extracted from leaf tissue, not purified to homogeneity, activity per total soluble protein", "experiment": "EPSPS activity by phosphate release (EnzChek Phosphate Assay), leaf extract", "format": "biochemical, Steinchisma laxum", "conditions": "S population; glyphosate 0-1000 µM; read-out: I50"}, "[2]": {"test_system": "T1, EPSPS (5-enolpyruvylshikimate-3-phosphate synthase)", "experiment": "EPSPS activity by phosphate release (EnzChek Phosphate Assay), leaf extract", "format": "biochemical, Steinchisma laxum", "conditions": "R population (Pro106Ser found in R plants); glyphosate 0-1000 µM; stated gain; read-out: I50"}}, "note": "Where two headings read alike, the source gives them in different places."}
{"smiles": "O=C(O)CNCP(=O)(O)O", "note": "[glyphosate, N-(phosphonomethyl) glycine]", "values": [{"measurement": "IC50", "setting": "[1]", "result": 0.98, "unit": "µM"}, {"measurement": "IC50", "setting": "[2]", "result": 14.7, "unit": "µM"}]}
